Measurements taken from the supplement of paper PMC10883282.

What was measured:
Experiment in all cases: relative viability vs DMSO control (72 h) (fraction); higher = more viable cells
SW1353 = test system: SW1353
In short: (§1)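 After seeding at densities set for 80–90% confluence in 384-well plates, sarcoma cell lines waited 24 h before 2.5 µl of serially diluted compound was added. Source plates held 10 mM down to 0.0002 mM. Plates were incubated 72 h at 37 °C with 5% CO2, with 0.1% DMSO vehicle and a 5 µM positive control, and relative viability was taken from ATPLite as percent growth averaged over up to triplicate wells, with 1 set as full and 0 as none.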

SK-LMS-1 = test system: SK-LMS-1
In short: as §1

RD = test system: RD
In short: as §1

KHOS-240S = test system: KHOS-240S
In short: as §1

SW872 = test system: SW872
In short: as §1

G401 = test system: G401
In short: as §1

HS729 = test system: HS729
In short: as §1

RD-ES = test system: RD-ES
In short: as §1

SW684 = test system: SW684
In short: as §1

SYO-1 = test system: SYO-1
In short: as §1

KHOS-NP = test system: KHOS-NP
In short: as §1

HT1080 = test system: HT1080
In short: as §1

Cc1cccc(-c2[nH]c(CNc3ccccc3F)nc2-c2ccc3ncnn3c2)n1 [Vactosertib]
Settings	relative viability
G401, 0.00017 µM	0.942
G401, 0.00051 µM	0.937
G401, 0.00152 µM	0.969
G401, 0.00457 µM	0.984
G401, 0.01372 µM	0.97
G401, 0.04115 µM	0.937
G401, 0.1235 µM	0.9496
G401, 0.3704 µM	0.978
G401, 1.111 µM	0.9638
G401, 3.333 µM	0.967
G401, 10 µM	0.923
HS729, 0.00017 µM	0.964
HS729, 0.00051 µM	0.969
HS729, 0.00152 µM	0.938
HS729, 0.00457 µM	0.962
HS729, 0.01372 µM	0.928
HS729, 0.04115 µM	0.939
HS729, 0.1235 µM	0.882
HS729, 0.3704 µM	0.849
HS729, 1.111 µM	0.787
HS729, 3.333 µM	0.73
HS729, 10 µM	0.68
HT1080, 0.00017 µM	1.02
HT1080, 0.00051 µM	1
HT1080, 0.00152 µM	0.967
HT1080, 0.00457 µM	1.01
HT1080, 0.01372 µM	1.042
HT1080, 0.04115 µM	1.01
HT1080, 0.1235 µM	1.04
HT1080, 0.3704 µM	1.05
HT1080, 1.111 µM	1.02
HT1080, 3.333 µM	1.02
HT1080, 10 µM	1.01
KHOS-240S, 0.00017 µM	1.02
KHOS-240S, 0.00051 µM	1.04
KHOS-240S, 0.00152 µM	1.03
KHOS-240S, 0.00457 µM	1.02
KHOS-240S, 0.01372 µM	1.03
KHOS-240S, 0.04115 µM	1
KHOS-240S, 0.1235 µM	0.992
KHOS-240S, 0.3704 µM	0.966
KHOS-240S, 1.111 µM	0.952
KHOS-240S, 3.333 µM	0.885
KHOS-240S, 10 µM	0.708
KHOS-NP, 0.00017 µM	1.05
KHOS-NP, 0.00051 µM	1.05
KHOS-NP, 0.00152 µM	1.05
KHOS-NP, 0.00457 µM	1.04
KHOS-NP, 0.01372 µM	1.03
KHOS-NP, 0.04115 µM	1.02
KHOS-NP, 0.1235 µM	1.046
KHOS-NP, 0.3704 µM	1.05
KHOS-NP, 1.111 µM	1.05
KHOS-NP, 3.333 µM	1.05
KHOS-NP, 10 µM	1.011
RD, 0.00017 µM	1.07
RD, 0.00051 µM	1.06
RD, 0.00152 µM	1.06
RD, 0.00457 µM	1.09
RD, 0.01372 µM	1.07
RD, 0.04115 µM	1.09
RD, 0.1235 µM	1.07
RD, 0.3704 µM	1.09
RD, 1.111 µM	1.09
RD, 3.333 µM	1.07
RD, 10 µM	1.09
RD-ES, 0.00017 µM	0.9791
RD-ES, 0.00051 µM	0.97
RD-ES, 0.00152 µM	0.974
RD-ES, 0.00457 µM	0.958
RD-ES, 0.01372 µM	0.97
RD-ES, 0.04115 µM	0.973
RD-ES, 0.1235 µM	0.971
RD-ES, 0.3704 µM	0.964
RD-ES, 1.111 µM	0.945
RD-ES, 3.333 µM	0.925
RD-ES, 10 µM	0.865
SK-LMS-1, 0.00017 µM	0.968
SK-LMS-1, 0.00051 µM	0.963
SK-LMS-1, 0.00152 µM	0.981
SK-LMS-1, 0.00457 µM	0.982
SK-LMS-1, 0.01372 µM	0.984
SK-LMS-1, 0.04115 µM	0.978
SK-LMS-1, 0.1235 µM	0.95
SK-LMS-1, 0.3704 µM	0.918
SK-LMS-1, 1.111 µM	0.988
SK-LMS-1, 3.333 µM	0.992
SK-LMS-1, 10 µM	0.96
SW684, 0.00017 µM	1.15
SW684, 0.00051 µM	1.08
SW684, 0.00152 µM	1.08
SW684, 0.00457 µM	1.1
SW684, 0.01372 µM	1.07
SW684, 0.04115 µM	1.06
SW684, 0.1235 µM	1.07
SW684, 0.3704 µM	1.04
SW684, 1.111 µM	1.08
SW684, 3.333 µM	1.07
SW684, 10 µM	1.11
SW872, 0.00017 µM	0.928
SW872, 0.00051 µM	0.938
SW872, 0.00152 µM	0.932
SW872, 0.00457 µM	0.958
SW872, 0.01372 µM	0.979
SW872, 0.04115 µM	0.95
SW872, 0.1235 µM	0.969
SW872, 0.3704 µM	0.999
SW872, 1.111 µM	1.06
SW872, 3.333 µM	1.062
SW872, 10 µM	1.02
SW1353, 0.00017 µM	0.904
SW1353, 0.00051 µM	0.964
SW1353, 0.00152 µM	0.89
SW1353, 0.00457 µM	0.911
SW1353, 0.01372 µM	0.947
SW1353, 0.04115 µM	0.953
SW1353, 0.1235 µM	0.96
SW1353, 0.3704 µM	0.946
SW1353, 1.111 µM	0.968
SW1353, 3.333 µM	0.893
SW1353, 10 µM	0.875
SYO-1, 0.00017 µM	0.9167
SYO-1, 0.00051 µM	0.925
SYO-1, 0.00152 µM	0.929
SYO-1, 0.00457 µM	0.895
SYO-1, 0.01372 µM	0.894
SYO-1, 0.04115 µM	0.872
SYO-1, 0.1235 µM	0.86
SYO-1, 0.3704 µM	0.808
SYO-1, 1.111 µM	0.773
SYO-1, 3.333 µM	0.697
SYO-1, 10 µM	0.591

C[C@@H]1COC(Nc2ccc3ncnc(Nc4ccc(OCc5nccs5)c(Cl)c4)c3c2)=N1 [Varlitinib]
Settings	relative viability
G401, 0.00017 µM	0.96
G401, 0.00051 µM	0.979
G401, 0.00152 µM	0.993
G401, 0.00457 µM	0.966
G401, 0.01372 µM	0.981
G401, 0.04115 µM	0.993
G401, 0.1235 µM	0.973
G401, 0.3704 µM	0.939
G401, 1.111 µM	0.8904
G401, 3.333 µM	0.8118
G401, 10 µM	0.663
HS729, 0.00017 µM	1.08
HS729, 0.00051 µM	1.05
HS729, 0.00152 µM	1.08
HS729, 0.00457 µM	1.06
HS729, 0.01372 µM	1.03
HS729, 0.04115 µM	1.05
HS729, 0.1235 µM	0.993
HS729, 0.3704 µM	0.994
HS729, 1.111 µM	0.9668
HS729, 3.333 µM	0.931
HS729, 10 µM	0.76
HT1080, 0.00017 µM	1.06
HT1080, 0.00051 µM	1.03
HT1080, 0.00152 µM	1.05
HT1080, 0.00457 µM	1.05
HT1080, 0.01372 µM	1.04
HT1080, 0.04115 µM	1.06
HT1080, 0.1235 µM	1
HT1080, 0.3704 µM	1.01
HT1080, 1.111 µM	1.02
HT1080, 3.333 µM	0.99
HT1080, 10 µM	0.97
KHOS-240S, 0.00017 µM	1.02
KHOS-240S, 0.00051 µM	1.03
KHOS-240S, 0.00152 µM	1.02
KHOS-240S, 0.00457 µM	1.05
KHOS-240S, 0.01372 µM	1.048
KHOS-240S, 0.04115 µM	1.05
KHOS-240S, 0.1235 µM	1.05
KHOS-240S, 0.3704 µM	0.996
KHOS-240S, 1.111 µM	0.9899
KHOS-240S, 3.333 µM	0.947
KHOS-240S, 10 µM	0.849
KHOS-NP, 0.00017 µM	1.03
KHOS-NP, 0.00051 µM	1.05
KHOS-NP, 0.00152 µM	1.06
KHOS-NP, 0.00457 µM	1.05
KHOS-NP, 0.01372 µM	1.06
KHOS-NP, 0.04115 µM	1.05
KHOS-NP, 0.1235 µM	1.07
KHOS-NP, 0.3704 µM	1.06
KHOS-NP, 1.111 µM	1.04
KHOS-NP, 3.333 µM	1.04
KHOS-NP, 10 µM	0.94
RD, 0.00017 µM	0.983
RD, 0.00051 µM	0.984
RD, 0.00152 µM	0.997
RD, 0.00457 µM	1.02
RD, 0.01372 µM	0.998
RD, 0.04115 µM	1.02
RD, 0.1235 µM	1.05
RD, 0.3704 µM	1
RD, 1.111 µM	1.04
RD, 3.333 µM	1.05
RD, 10 µM	1.05
RD-ES, 0.00017 µM	0.968
RD-ES, 0.00051 µM	1.01
RD-ES, 0.00152 µM	0.957
RD-ES, 0.00457 µM	0.985
RD-ES, 0.01372 µM	0.975
RD-ES, 0.04115 µM	0.991
RD-ES, 0.1235 µM	1
RD-ES, 0.3704 µM	0.948
RD-ES, 1.111 µM	0.961
RD-ES, 3.333 µM	0.973
RD-ES, 10 µM	0.89
SK-LMS-1, 0.00017 µM	1.01
SK-LMS-1, 0.00051 µM	1.033
SK-LMS-1, 0.00152 µM	1.06
SK-LMS-1, 0.00457 µM	1
SK-LMS-1, 0.01372 µM	1.02
SK-LMS-1, 0.04115 µM	1.04
SK-LMS-1, 0.1235 µM	1.04
SK-LMS-1, 0.3704 µM	1.04
SK-LMS-1, 1.111 µM	1.04
SK-LMS-1, 3.333 µM	0.976
SK-LMS-1, 10 µM	0.872
SW684, 0.00017 µM	1.01
SW684, 0.00051 µM	1.09
SW684, 0.00152 µM	1.07
SW684, 0.00457 µM	1.08
SW684, 0.01372 µM	1.08
SW684, 0.04115 µM	1.08
SW684, 0.1235 µM	1.063
SW684, 0.3704 µM	1.08
SW684, 1.111 µM	1.06
SW684, 3.333 µM	1.03
SW684, 10 µM	1.03
SW872, 0.00017 µM	1.09
SW872, 0.00051 µM	1.07
SW872, 0.00152 µM	1.1
SW872, 0.00457 µM	1.08
SW872, 0.01372 µM	1.065
SW872, 0.04115 µM	1.08
SW872, 0.1235 µM	1.05
SW872, 0.3704 µM	1.04
SW872, 1.111 µM	0.993
SW872, 3.333 µM	0.939
SW872, 10 µM	0.743
SW1353, 0.00017 µM	1.03
SW1353, 0.00051 µM	0.981
SW1353, 0.00152 µM	0.968
SW1353, 0.00457 µM	1.04
SW1353, 0.01372 µM	0.978
SW1353, 0.04115 µM	1.01
SW1353, 0.1235 µM	0.947
SW1353, 0.3704 µM	0.886
SW1353, 1.111 µM	0.824
SW1353, 3.333 µM	0.812
SW1353, 10 µM	0.738
SYO-1, 0.00017 µM	1.04
SYO-1, 0.00051 µM	1.04
SYO-1, 0.00152 µM	1.03
SYO-1, 0.00457 µM	1.03
SYO-1, 0.01372 µM	1.02
SYO-1, 0.04115 µM	1.03
SYO-1, 0.1235 µM	1.02
SYO-1, 0.3704 µM	1.02
SYO-1, 1.111 µM	1.01
SYO-1, 3.333 µM	0.941
SYO-1, 10 µM	0.55
